Assay results taken from patent publication US8470889B2 (TRT Pharma Inc., priority 2008, dated 2013).

Tests used:
DU145 cells = assay: IL-6 secretion, Human IL-6 ELISA; type: cell-based; settings: DU-145 cells, 24 hr
HP-LNCaP cells = assay: MTT cellular growth, HP-LNCaP; type: cell-based; settings: FIG. 10
Experimental: HP-LNCaP cells were grown in the androgen-depleted medium (FIG. 9A) and grow more aggressively than LNCaP cells in the whole medium (FIG. 9B). Cellular growth was evaluated by MTT assays. […] HP-LNCaP cells over-express AR protein (FIG. 10C).

[1] = target: T1, hormone-binding pocket of the AR-LBD (Rattus norvegicus, UniProt P15207); assay: AR fluorescence polarization (FP) competitor assay; settings: FIG. 8
T1 construct: purchased Invitrogen P3018
T1 sequence (P15207 651-882 limits assumed): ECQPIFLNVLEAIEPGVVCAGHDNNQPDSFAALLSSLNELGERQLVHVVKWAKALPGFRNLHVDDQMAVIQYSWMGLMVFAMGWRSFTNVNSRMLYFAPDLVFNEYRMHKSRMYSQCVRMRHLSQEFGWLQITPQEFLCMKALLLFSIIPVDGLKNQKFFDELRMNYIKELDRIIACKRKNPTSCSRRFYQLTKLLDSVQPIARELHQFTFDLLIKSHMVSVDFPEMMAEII
From the text: The fluorescence polarization was used as a read-out and normalized to that of DMSO vehicle. Results are reported as average±s.d. of experiments performed in triplicates. DHT is included as a positive control.

Bic-LNCaP cells = assay: MTT cellular growth, Bic-LNCaP; type: cell-based; settings: FIG. 10

SMILES | secretion of IL-6 (DU145 cells) | activity against HP-LNCaP cells (HP-LNCaP cells) | competitive binding to the hormone-binding pocket of the AR-LBD [1] | activity against Bic-LNCaP cells (Bic-LNCaP cells)
CC1(C)CCC(O)C=C1/C=C/C(=O)/C=C/c1csc2ccccc12 (stereo not shown) [Compound B92] | suppress secretion |  |  | 
CC1(C)CCC(O)C=C1/C=C/C(=O)/C=C/c1cnc2ccccc2c1 (stereo not shown) [Compound B95] |  | remains active | competitive binding | remains active
